Patent US5242929A, “Derivatives of substituted imidazol-2-one and process for their preparation” (Farmitalia Carlo Erba S.r.l., priority 1991, dated 1993)
Like-named read-outs stand apart in the source and are kept apart here.

How the values were obtained:
[1] = biological target: T1, 5HT3 receptor (Rattus norvegicus, UniProt P35563); assay: inhibition of the binding of ^3 H-GR65630 in rat entorhinal cortex; parameters: labeled in the entorhinal cortex of the rat brain; from tissue; host or cells: rat entorhinal cortex; conditions: for binding model / interaction with 5-HT3 receptors: entorhinal cortex of the rat brain, ^3 H-GR 65630
T1 sequence (P35563 24-483): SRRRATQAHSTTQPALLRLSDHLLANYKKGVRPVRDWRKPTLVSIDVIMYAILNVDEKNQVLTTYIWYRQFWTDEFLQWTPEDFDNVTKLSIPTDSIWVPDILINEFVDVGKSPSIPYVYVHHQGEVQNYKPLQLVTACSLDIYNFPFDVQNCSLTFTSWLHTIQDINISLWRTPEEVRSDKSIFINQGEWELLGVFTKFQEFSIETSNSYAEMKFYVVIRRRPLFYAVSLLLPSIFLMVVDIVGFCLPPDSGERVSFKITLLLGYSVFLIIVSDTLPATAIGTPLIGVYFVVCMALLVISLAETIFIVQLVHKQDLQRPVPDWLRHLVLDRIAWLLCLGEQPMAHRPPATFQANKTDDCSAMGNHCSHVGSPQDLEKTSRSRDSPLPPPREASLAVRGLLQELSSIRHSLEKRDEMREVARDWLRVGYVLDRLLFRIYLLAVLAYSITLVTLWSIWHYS

[2] = biological target: T1, 5HT3 receptor; assay: von Bezold-Jarisch chemoreflex evoked by 5-HT in the anesthetised rat; assay type: in vivo; parameters: chemoreflex evoked by 5-HT in the anesthetised rat; from tissue; host or cells: whole living anesthetised rat, endogenous receptor (vagal afferents by own knowledge); conditions: 5-HT 20 μg/kg i.v., anesthetized rat; for % inhibition of the Bezold-Jarisch reflex: mean ± S.E.M. from 6 animals, *p < 0.01 vs controls (Dunnett's test)
Description: Pharmacol. 326, 36-44 (1984).
The following Table I reports the in vivo 5HT3 antagonist activity data obtained in this test for the representative compound of the invention 1-(1-azabicyclo[2.2.2]oct-3 yl)-3-(3-chlorophenyl)-imidazolidin-2-one (internal code FCE 26778).
Inhibition of the Bezold-Jarisch reflex elicited by 5-HT
(20 μg/kg i.v.) by i.v. FCE 26778 in the anesthetized rat.
Values are mean ± S.E.M. from 6 animals

Row | SMILES | Ki [1] | binding model / interaction with 5-HT3 receptors [1] | Ki ([1]; [^3 H]GR 65630 labelled 5HT3 sites, rat entorhinal cortex, two site fitting, low affinity, read-out: Ki low) | % inhibition of the Bezold-Jarisch reflex ([2]; 30 μg/kg i.v.) | % inhibition of the Bezold-Jarisch reflex ([2]; 100 μg/kg i.v.) | % inhibition of the Bezold-Jarisch reflex ([2]; 300 μg/kg i.v.) | ED50 ([2]; iv, limits 54.50-98.39)
1 | CCN(CC)CCNC(=O)c1cc(Cl)c(N)cc1OC [Metoclopramide] | 0.547 µM | displaced ^3 H-GR 65630 according to one site non-linear fitting |  |  |  |  | 
2 | CN1C2CCC1CC(OC(=O)c1cc(Cl)cc(Cl)c1)C2 (centres unmarked) [MDL 72222] | 0.0255 µM | displaced ^3 H-GR 65630 according to one site non-linear fitting |  |  |  |  | 
3 | O=C1N(c2cccc(Cl)c2)CCN1C1CN2CCC1CC2 (centres unmarked) [FCE 26778, 1-(1-azabicyclo[2.2.2]oct-3 yl)-3-(3-chlorophenyl)-imidazolidin-2-one] | 0.00442 µM | interacted according to a two site non-linear fitting model | 1.1 µM | 26.66 ± 5.25% | 59.57 ± 5.87% | 81.33 ± 3.32% | 0.0749 mg/kg
